Test results published in patent US10793558B2, “Quinoline oxadiazoles as cytoprotective agents” (priority 2015, dated 2020).

How the values were obtained:
CSM14.1 neuronal cells = experiment: Cell Survival Assay (thapsigargin-treated CSM14.1 neuronal cells, CELLTITER-GLO luminescence); type: cell-based; conditions: CSM14.1 cells, about 15 μM thapsigargin, overnight (about 16 to 24 hrs), 2 hrs preincubation
Method: CSM14.1 neuronal cells were maintained in Complete Medium at 32° C.; wherein the Complete Medium contained Dulbecco's modified eagle medium (DMEM) with 10% fetal bovine serum (FSB), 1% L-glutamine, 100 IU/mL penicillin, and 100 μg/mL streptomycin. […] Seeding was performed using a MultiDrop Combi reagent broadcaster. The plates were incubated overnight at 32° C. A test compound was prepared by 2-fold serial dilution in 100% DMSO using a BIOMEK® 2000 liquid handler (Beckman Coulter). A dose-response curve containing 10 concentrations of the test compound was obtained. Using a BIOMEK® FX liquid handler (Beckman Coulter), 2.5 μL of the test compound was transferred from the 100% DMSO serial dilution plate to an intermediate plate containing 47.5 μL of DMEM Assay Medium containing 2% FBS, 100 IU/mL penicillin, and 100 μg/mL streptomycin and mixed. […] The tissue culture media (4 μL) containing vehicle only was transferred manually to each control cell using a 16 channel electronic pipette. […] High luminescence indicates cell survival.

HEK293 cells; N2a cells = experiment: Cell Rescue Assay: Protection against Thapsigargin (TG)-induced Cell-death (ALAMARBLUE); type: cell-based, human (HEK293); mouse (N2a); conditions: compound 20 μM, 2 hrs before thapsigargin (15 μM for HEK293 cells and 1 μM for N2a cells), 24 hrs; cell line not given; read-out: Cell Survival %
Method: Protection against Thapsigargin (TG)-induced Cell-death. Human embryonic kidney (HEK293) cells were grown in Dulbecco's Modified Eagle's Medium (DMEM) with 10% FBS and 1% antibiotic antimycotic solution (ABAM). Mouse neuroblastoma (N2a) cells were grown in 1:1 DMEM:OPTI-MEM® with 5% FBS and 1% ABAM. All cells were grown in 10% CO2 in a humidified environment of the incubator. Cells grown in 96-well plates were exposed to a test compound (20 μM) for 2 hrs before addition of thapsigargin (15 μM for HEK293 cells and 1 μM for N2a cells) to induce ER stress. After incubation in cell-culture incubator for 24 hrs, ALAMARBLUE® regent (10% v/v) was added to the wells. Fluorescence reading was taken 2 hrs after the addition of the ALAMARBLUE® regent. Cell-viability was calculated as a percentage of relative fluorescence unit (RFU) compared to control. […] The biological results are summarized in Table 2, where each compound was tested at 20 μM and where A represents a viability greater than 50%, B represents a viability greather than 10% and less than 50%, C represents a value below 10%.

Ob/ob mice = experiment: Effect of a SERCA Agonist on the Level of Blood Glucose in Ob/ob mice; type: in vivo, mouse; conditions: 50 mg/kg i.p. once a day, 5 days, fasting glucose at baseline and 4 days after administration
Method: Ob/ob mice (10 weeks old, n=7) were intraperitoneally (i.p.) injected with 100 μL of a solution containing 0 (vehicle) or 50 mg/kg of a test compound once a day for a total of 5 days. Fasting glucose was measured at baseline and 4 days after the administration of the test compound. Glucose levels were measured in blood samples drawn from the tail vein using a handheld glucose sensor. Compound effects on blood glucose are shown in Table 5 where A represents a 10-20% reduction in blood glucose, B represents a 21-30% reduction in blood glucose, and C represents a greater than 30% reduction in blood glucose levels.

SERCA = experiment: Ca-ATPase Assay (NADH-linked, enzyme-coupled ATPase assay, microsomal preparations from HEK 293 cells); type: biochemical, human; conditions: pH 7.0, 5 mM ATP, relative to controls
Method: A Ca-ATPase assay was performed using microsomal preparations from HEK 293 cells at a series of calcium concentrations corresponding to the physiological range, relative to controls. The ATP hydrolysis rate was measured over a range of calcium concentrations in the presence of test compounds using an NADH-linked, enzyme-coupled ATPase assay adapted for 96-well microplates, with Vmax determined by fitting the ATPase calcium-dependence to the Hill function. Each well contained 2 μg or 7 μg of SR vesicles (optimized for skeletal or cardiac SR, respectively), 50 mM MOPS (pH 7.0), 100 mM KCl, 5 mM MgCl2, 1 mM EGTA, 0.2 mM NADH, 1 mM phosphoenol pyruvate, 5 IU pyruvate kinase, 5 IU lactate dehydrogenase, and 3.5 μg/mL A23187 (a calcium ionophore). CaCl2 was added to set free [Ca^2+] to the specific values. The assay was started upon addition of ATP at a final concentration of 5 mM, and read in a SpectraMax Plus microplate spectrophotometer. The results are summarized in Table 4, where A represents an increase in SERCA Vmax greater than 50% and B represents a value greater than 10% and less than 50%.

Cc1ccc2cccc(-c3nc(-c4ccc(OC(C)C)cc4)no3)c2n1 [Compound B1, 3-(4-Isopropoxyphenyl)-5-(2-methylquinolin-8-yl)-1,2,4-oxadiazole]
EC50 (CSM14.1 neuronal cells): 1000 to 10000 nM | viability at 20 µM (HEK293 cells; N2a cells): 10 to 50% | Glucose level reduction (Ob/ob mice): B (a 21-30% reduction in blood glucose)

Cc1ccc2cccc(-c3nc(-c4ccc(Br)s4)no3)c2n1 [Compound B2, 3-(5-Bromothiophen-2-yl)-5-(2-methylquinolin-8-yl)-1,2,4-oxadiazole]
EC50 (CSM14.1 neuronal cells): 1000 to 10000 nM | viability at 20 µM (HEK293 cells; N2a cells): 10 to 50% | Glucose level reduction (Ob/ob mice): B (a 21-30% reduction in blood glucose)

Cc1ccc2cccc(-c3nc(-c4cc(Br)cs4)no3)c2n1 [Compound B3, 3-(4-Bromothienyl-2-yl)-5-(2-methylquinolin-8-yl)-1,2,4-oxadiazole]
EC50 (CSM14.1 neuronal cells): 1000 to 10000 nM | viability at 20 µM (HEK293 cells; N2a cells): > 50% | Glucose level reduction (Ob/ob mice): A (a 10-20% reduction in blood glucose)

Cc1ccc2cccc(-c3nc(-c4ccc(Cl)cc4)no3)c2n1 [Compound B4, 3-(4-Chlorophenyl)-5-(2-methylquinolin-8-yl)-1,2,4-oxadiazole]
EC50 (CSM14.1 neuronal cells): < 1000 nM | viability at 20 µM (HEK293 cells; N2a cells): > 50% | SERCA Vmax Increase (SERCA): A (an increase in SERCA Vmax greater than 50%) | Glucose level reduction (Ob/ob mice): C (a greater than 30% reduction in blood glucose levels)
